Source: article PMC4052307, “Identification of Plakortide E from the Caribbean Sponge Plakortis halichondroides as a Trypanocidal Protease Inhibitor using Bioactivity-Guided Fractionation” (Marine Drugs, 2014)
Several values for one entry are separate records, joined by “and”; a condition that tells them apart may be missing. Identical values can stand only once. Like-named read-outs stand apart in the source and are kept apart here.

Columns and labels:
Plasmodia = conditions: cited from earlier work
rhodesain [1] = target: T1, rhodesain (Trypanosoma brucei rhodesiense, UniProt Q95PM0); test: rhodesain dilution assay (reversibility); type: biochemical; conditions: preincubated 1 h with 10 fold IC50, then diluted 100 fold
T1 sequence (Q95PM0 entry or part of it): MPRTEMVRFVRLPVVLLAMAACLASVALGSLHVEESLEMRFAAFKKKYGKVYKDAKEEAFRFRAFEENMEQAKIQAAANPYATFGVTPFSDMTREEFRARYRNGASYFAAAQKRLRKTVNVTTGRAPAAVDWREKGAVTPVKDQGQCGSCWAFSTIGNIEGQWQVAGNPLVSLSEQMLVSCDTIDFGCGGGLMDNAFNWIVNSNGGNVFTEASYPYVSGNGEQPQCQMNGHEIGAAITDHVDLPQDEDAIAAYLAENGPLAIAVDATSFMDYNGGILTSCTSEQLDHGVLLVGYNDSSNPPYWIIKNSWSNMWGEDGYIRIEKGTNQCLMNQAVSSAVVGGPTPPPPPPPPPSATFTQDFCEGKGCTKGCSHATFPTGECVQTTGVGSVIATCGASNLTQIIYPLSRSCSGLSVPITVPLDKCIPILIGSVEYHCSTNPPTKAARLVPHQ
Protocol: In order to study the inhibition mechanism of plakortide E, enzyme assays with various inhibitor and substrate concentrations were performed with cathepsin B to determine whether the inhibition is competitive with respect to the substrate. The IC50 values for cathepsin B were determined at three different substrate concentrations (50, 100, 200 μM). […] Therefore, we determined the time-dependency of inhibition by measuring IC50 values in correlation to incubation time of enzyme with the inhibitor added, prior to substrate addition. […] To address whether the inhibition is reversible or irreversible, further kinetic studies were performed as described by Copeland [19]. Dilution assays were performed and compared with K11777 [20], an irreversible vinylsulfone-based inhibitor of rhodesain. The enzyme rhodesain (100 fold concentration as used in the normal enzyme assays) was preincubated with the 10 fold IC50 concentration of the compound for one hour, which allows the formation of enzyme-inhibitor complexes and leads to total block of enzyme activity. […] In case of irreversible inhibition, dissociation of the complex cannot occur and no enzyme activity will be detected. […] This indicates a reversible inhibition by plakortide E. In summary, plakortide E was determined to be a non-competitive, reversible, inhibitor of cysteine proteases, in case of rhodesain slow-binding was observed.

cathepsin B = cathepsin B (Homo sapiens, UniProt P07858); test: cathepsin B enzyme assay; type: biochemical
cathepsin L = cathepsin L (Homo sapiens, UniProt P07711); test: cathepsin L enzyme assay; type: biochemical
Sequence of cathepsin L (P07711 114-333): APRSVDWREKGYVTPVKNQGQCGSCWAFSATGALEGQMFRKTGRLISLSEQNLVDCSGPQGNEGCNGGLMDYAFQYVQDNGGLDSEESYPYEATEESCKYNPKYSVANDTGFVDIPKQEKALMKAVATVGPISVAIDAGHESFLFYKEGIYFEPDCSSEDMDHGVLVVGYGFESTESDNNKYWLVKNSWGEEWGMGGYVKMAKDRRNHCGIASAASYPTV

rhodesain [2] = target: T1, rhodesain; test: rhodesain enzyme assay; type: biochemical
SARS PLpro = type: biochemical, SARS coronavirus; conditions: at 100 μg/mL (285.71 μM)
[3] = system: trypomastigote forms of Trypanosoma brucei; test: parasite growth assay against T. brucei; type: cell-based; conditions: read-out: trypanocidal activity IC50
[4] = system: Leishmania major promastigotes; test: assay on L. major promastigotes; type: cell-based
Candida albicans = test: assay on C. albicans; type: cell-based
J774.1 macrophages = conditions: at 100 μM
[5] = system: sarcoplasmic reticulum (SR) Ca2+ ATPase; design: method as in doi:10.1016/0040-4020(95)00856-X; conditions: cited from earlier work

For dihydroplakortin, the “activity against Plasmodia” value (Plasmodia) is given as “active”.

With `CN1CCN(C(=O)N[C@@H](Cc2ccccc2)C(=O)N[C@H](/C=C/S(=O)(=O)c2ccccc2)CCc2ccccc2)CC1` [K11777, reference compound] the “reactivation of the enzyme (enzyme activity after dilution)” value (rhodesain [1]) was “no enzyme activity was detected”.

In the case of `CC/C=C/[C@H](CC)C/C(C)=C/[C@@]1(CC)C[C@](/C=C/C(=O)O)(CC)OO1` [plakortide E], the “inhibition mechanism, cathepsin B” value (cathepsin B; IC50 at three substrate concentrations) is reported as “non-competitive inhibition”, the “inhibition of cathepsin B” value (cathepsin B; at 100 μg/mL (285.71 μM)) is reported as “Inhibition” and the IC50 (cathepsin B; substrate concentration 50 μM) is reported as 82.7 µM and 82 µM. The IC50 (cathepsin B; substrate concentration 100 μM) was 74.2 µM and 73 µM, the IC50 (cathepsin B; substrate concentration 200 μM) was 103 µM and the IC50 (cathepsin L; [S] = 6.25 μM) was 106 µM and 105 µM. For the same compound, the “inhibition of cathepsin L” value (cathepsin L; at 100 μg/mL (285.71 μM)) was “Inhibition”, the IC50 (rhodesain [2]; 5 min incubation of enzyme with inhibitor prior to substrate addition, read-out: IC50 rhodesain, time-dependency (converted)) was 257 µM and the IC50 (rhodesain [2]; 30 min incubation of enzyme with inhibitor prior to substrate addition, read-out: IC50 rhodesain, time-dependency (converted)) was 205 µM. For the same compound, the IC50 (rhodesain [2]; 60 min incubation of enzyme with inhibitor prior to substrate addition, read-out: IC50 rhodesain, time-dependency (converted)) was 77 µM, the IC50 (rhodesain [2]; [S] = 30.0 μM, read-out: IC50 rhodesain (converted)) was 124 µM and 126 µM and the inhibition of rhodesain (rhodesain [2]; at 100 μg/mL (285.71 μM)) was “Inhibition”. For the same compound, the “inhibition mechanism, rhodesain” value (rhodesain [2]; enzyme kinetic studies) was “non-competitive, slowly-binding, reversible inhibitor”, the “reactivation of the enzyme (enzyme activity after dilution)” value (rhodesain [1]) was “about 50%” and the “inhibition of SARS PLpro” value (SARS PLpro) was “Inhibition”. For the same compound, the IC50 ([3]; after 48 h) was 5 µM, the IC50 ([3]; after 72 h) was 5 µM and the “activity against Leishmania” value [4] was “did not show activity”. For the same compound, the “activity against Candida” value (Candida albicans) was “No activity”, the “cytotoxic effects against macrophages” value (J774.1 macrophages) was “no cytotoxic effects” and the “SR Ca2+ ATPase activity” value [5] was “stimulate”. The “activity against Plasmodia” value (Plasmodia) was “inactive”.

For plakortide Q, the “activity against Plasmodia” value (Plasmodia) is given as “active”.

In the case of `CC/C=C/[C@H](CC)C[C@@]1(C)C[C@@H](CC)[C@@H](CC(=O)OC)OO1` [plakortin], the “activity against Plasmodia” value (Plasmodia) is given as “active”.

For `CC/C=C/C(CC)C[C@@]1(C)C[C@@H](CC)[C@H](CC(=O)OC)OO1` (stereo partly shown) [3-epiplakortin], the “activity against Plasmodia” value (Plasmodia) is listed as “active”.

For `CC/C=C/[C@H](CC)C/C=C/[C@@]1(CC)C[C@H](CC)[C@H](CC(=O)O)OO1` [plakortide M], the “activity against Plasmodia” value (Plasmodia) is given as “active”.
